# Test results from paper PMC9238271, “The quorum sensing peptide EntF* promotes colorectal cancer metastasis in mice: a new factor in the host-microbiome interaction” (BMC Biology, 2022).
# Assays:
# [1] = system: E-cadherin expression in HT-29 cells; experiment: Western blot of E-cadherin expression, HT-29 cells; assay type: cell-based
# Protocol: HCT-8, HT-29, and HT-116 cells were grown in DMEM medium supplied with 10% fetal bovine serum (FBS) and 1% penicillin-streptomycin. Caco-2 cells were grown in DMEM medium supplied with 10% FBS, 1% non-essential amino acid NEAA), and 1% penicillin-streptomycin. Cells were cultured at 37 °C and 5% CO2. As cells reached confluency, they were detached using 0.25% Trypsin-EDTA.
# For Western blot analyses, HCT-8 (n = 15), HCT-116 (n = 12), Caco-2 (n = 6), and HT-29 (n = 12) cells were seeded in 6-well plates at a density of 1 × 10^6 cells/well. Twenty-four hours after seeding, all cell lines were treated with 1 μM EntF* or a placebo solution. HCT-8 cells were also tested for responsiveness to 1 μM EntF* synthetic alanine-derived analogs. For antagonist activity analysis, HCT-8 cells were treated with 1 μM Nef-M1 or 1 μM EntF*A1 alone or in combination with 500 nM EntF*. After 24 h, cells were detached from the surface and lysed in RIPA buffer (Thermo Scientific). Protein concentration was determined using the modified Lowry protein assay kit (Thermo Scientific), according to the manufacturer’s instructions. Protein samples were diluted to the same concentration (4 μg/μL) with water and diluted again 1:1 using 2x Laemmli buffer. After that, samples were boiled for 5 min at 95 °C to denature proteins and centrifuged for 5 min at 16,000g; supernatants were used for Western blot analyses. Equal amounts of total protein (20 μg/lane) were separated by SDS-PAGE on an Any kD^TM gel (Bio-Rad ) and then transferred to a PVDF membrane. Before incubation with antibodies, non-specific binding sites on the membranes were blocked using 5% skimmed milk solution (1 h). TBS buffer with 0.05% Tween 20 was used for all washing steps. Membranes were incubated overnight at 4 °C with an anti-E-cadherin primary antibody (1/1000 dilution). An HRP-conjugated anti-rabbit antibody (1/2000 dilution, 1 h incubation) was used for chemiluminescent detection. Membranes were incubated with the detection substrate for 5 min and signal detection was performed using the ChemiDoc EZ imager and Image Lab software (Bio-Rad). […]
# [2] = Formation of EntF* from EntF in HBSS (buffer); assay type: in vitro ADME; details: for Formation rate, HBSS: EntF in HBSS; for EntF* Conc formed from EntF / EntF* without metabolisation, Conc / EntF*/EntF: single run
# [3] = EntF* in serum of untreated mice, RP-UPLC-TQ-MS (LC1-MS1); assay type: in vivo, C57BL/6 mice; details: for EntF* concentration (pM) LC1-MS1: mouse serum, LOQ = 100 pM, below: set at 0
# Protocol: After a 30 min incubation on ice, blood was centrifuged at 1000g for 10 min at room temperature. The supernatant (serum) was then transferred to fresh tubes and stored at − 35 °C until use.
# Fifty microliters of serum were mixed with 150 μL 0.5% formic acid in acetonitrile. After sonication for 5 min, samples were vortexed for 5 s, then heated for 30 s at 100 °C. The solution was vortexed and centrifuged for 20 min at 20,000g at 4 °C. The supernatant was purified using solid phase extraction (SPE) on HyperSep C18 plates (Thermo Fisher Scientific, Belgium), previously conditioned with acetonitrile and equilibrated with 75% acetonitrile in water, containing 0.375% formic acid. After loading 150 μL of each sample, 120 μL eluent were collected and organic solvents evaporated using nitrogen (1 L/min) for 5 min. The resulting samples were further diluted with 30 μL of BSA-based anti-adsorption solution, and analyzed by LC-MS.
# EntF* was detected and quantified on a Waters Acquity® UPLC H-class system, connected to a Waters Xevo™ TQ-S triple quadrupole mass spectrometer with electrospray ionization (operated in positive ionization mode). Autosampler tray and column oven were kept at 10 ± 5 °C and 60 ± 5 °C, respectively. Chromatographic separation was achieved on a Waters Acquity® UPLC BEH Peptide C18 column (300 Å, 1.7 μm, 2.1 mm × 100 mm). The mobile phases consisted of 93/2/5 water/acetonitrile/DMSO (V/V/V) containing 0.1% formic acid (mobile phase A) and 2/93/5 water/acetonitrile/DMSO (V/V/V) containing 0.1% formic acid (mobile phase B), and the flow rate was set to 0.5 mL/min. A 10-μL aliquot from each sample was injected. The gradient program started with 80% of mobile phase A for 1 min, followed by a linear gradient to 40% of mobile phase A for 3.5 min. Gradient was then changed to 14.2% mobile phase A at 5 min, followed by a 1 min equilibration, before starting conditions were applied. EntF* retention time was between 4.25 and 4.45 min.
# An optimized capillary voltage of 3.00 kV, a cone voltage of 20.00 V, and a source offset of 50.0 V were used. Acquisition was done in the MRM mode. The selected precursor ion for EntF* was m/z 865.7 with two selected product ions at m/z 202.08 (36 eV, b2 fragment) as quantifier and m/z 315.17 (31 eV, b3 fragment) as qualifier.
# A sample was considered positive for the presence of EntF* when the following criteria were met: correct retention time, quantifier/qualifier peak area ratio between 2.0 and 4.0, both quantifier and qualifier peaks with a signal-to-noise ratio > 3.0, and a peptide concentration > 100 pM.
# [4] = HBSS, initial concentration EntF 31.82 µM, time 0
# [5] = HBSS, initial concentration EntF 31.82 µM, time 1
# [6] = HBSS, initial concentration EntF 31.82 µM, time 5
# [7] = HBSS, initial concentration EntF 31.82 µM, time 10
# [8] = HBSS, initial concentration EntF 31.82 µM, time 30
# [9] = HBSS, initial concentration EntF 31.82 µM, time 60
# [10] = HBSS, initial concentration EntF 31.82 µM, time 120
# [11] = HBSS, initial concentration EntF 31.82 µM, time 180
compound,measurement,setting,value
"CC(C)C[C@@H]1NC(=O)[C@H](CO)NC(=O)[C@H](Cc2ccccc2)NC(=O)[C@H](C(C)C)NC(=O)[C@@H](NC(=O)[C@H](CCC(=O)O)NC(=O)[C@@H](NC(=O)[C@H](CC(C)C)NC(=O)[C@H](CC(N)=O)NC(=O)[C@@H](N)CO)C(C)C)CSSC[C@@H](C(=O)N[C@@H](CC(N)=O)C(=O)O)NC(=O)[C@H](CCCCN)NC(=O)[C@H](CCCCN)NC(=O)[C@H](Cc2ccccc2)NC1=O (single isomer, unassigned) [EntF*]",effect on E-cadherin expression in HT-29 cells,"[1]; 1 μM EntF* or CXCL12, 24 h, n = 12",statistically significant reduction
same,"Relative E-cadherin expression, average","[1]; HT-29 cells, average of n = 12",73.7
same,"Formation rate, HBSS",[2]; value X1,0.0321 %*min-1
same,"Formation rate, HBSS",[2]; value X2,0.0130 %*min-1
same,"Formation rate, HBSS",[2]; value X3,0.0600 %*min-1
same,"Formation rate, HBSS",[2]; value X4,0.0499 %*min-1
same,"Formation rate, HBSS",[2]; value X5,0.0573 %*min-1
same,"Formation rate, HBSS",[2]; value X6,0.0440 %*min-1
same,"Formation rate, HBSS",[2]; value X7,0.0469 %*min-1
same,"Rico, Average","[2]; HBSS, initial concentration EntF 31.82 µM, average over the time points 1-180",0.0433 %*min-1
same,EntF* Conc formed from EntF,[2]; [4],0.00 µM
same,"EntF* without metabolisation, Conc",[2]; [4],0.00 µM
same,"EntF* without metabolisation, Conc",[2]; [5],0.01 µM
same,EntF*/EntF,[2]; [5],0.0321%
same,EntF* Conc formed from EntF,[2]; [6],0.02 µM
same,"EntF* without metabolisation, Conc",[2]; [6],0.02 µM
same,EntF*/EntF,[2]; [6],0.0652%
same,EntF* Conc formed from EntF,[2]; [7],0.19 µM
same,"EntF* without metabolisation, Conc",[2]; [7],0.19 µM
same,EntF*/EntF,[2]; [7],0.60%
same,EntF* Conc formed from EntF,[2]; [8],0.48 µM
same,"EntF* without metabolisation, Conc",[2]; [8],0.48 µM
same,EntF*/EntF,[2]; [8],1.50%
same,EntF* Conc formed from EntF,[2]; [9],1.09 µM
same,"EntF* without metabolisation, Conc",[2]; [9],1.09 µM
same,EntF*/EntF,[2]; [9],3.44%
same,EntF* Conc formed from EntF,[2]; [10],1.68 µM
same,"EntF* without metabolisation, Conc",[2]; [10],1.68 µM
same,EntF*/EntF,[2]; [10],5.28%
same,EntF* Conc formed from EntF,[2]; [11],2.69 µM
same,"EntF* without metabolisation, Conc",[2]; [11],2.69 µM
same,EntF*/EntF,[2]; [11],8.45%
same,stability of EntF* in HBSS,"[2]; HBSS, remark in sheet HBSS",EntF* is stable in HBSS
same,"in vivo exposure, average",[3]; All mice average (<LoD => 0),0.019 nM
same,"in vivo exposure, Exposure","[3]; All mice average (<LoD => 0), time 1440 min",27.5 nM·min
same,"Concentration (pM), average","[3]; Natural in vivo exposure, average of all samples, < LOD: set at 0 pM",19.1243 pM
same,Concentration (pM),"[3]; Natural in vivo exposure, sample 10809_069_205",107.331 pM
same,Concentration (pM),"[3]; Natural in vivo exposure, sample 10809_069_269",431.362 pM
same,Concentration (pM),"[3]; Natural in vivo exposure, sample 10809_069_276",567.385 pM
same,Concentration (pM),"[3]; Natural in vivo exposure, sample 10809_069_296",136.998 pM
same,"EntF* concentration in mouse serum, Average (pM), All","[3]; all samples (n=35), samples < LOQ counted as zero",328.6 pM
same,amount of EntF* detected in the serum of positive mice,"[3]; endogenous level, six of 35 untreated C57BL/6 mice, LOQ 100 pM, LC1-MS1",above 100 pM
same,EntF* concentration (pM) LC1-MS1,[3]; sample 20181011S4,389 pM
same,EntF* concentration (pM) LC1-MS1,[3]; sample 20181011S7,2146 pM
same,EntF* concentration (pM) LC1-MS1,[3]; sample 20181011S9,3127 pM
same,EntF* concentration (pM) LC1-MS1,[3]; sample 20181011S12,2489 pM
same,EntF* concentration (pM) LC1-MS1,[3]; sample 20181011S16,3148 pM
same,EntF* concentration (pM) LC1-MS1,[3]; sample 20181011S18,200 pM
